# How the values were obtained:
# RXRα homodimer = molecular target: T1, RXRα homodimer (Homo sapiens, UniProt P19793); assay: RXRα homodimer formation HTRF assay, sGFP-RXRα LBD titrated against biotinylated RXRα LBD (wildtype); format: binding; conditions: 10 μM ligand compared with no ligand
# T1 construct: His10-tag with TEV site (N, cleaved yes); made in house; host or cells: E. coli T7 express (co-expressed with GroEL/ES)
# T1 sequence (P19793 226-462) 1: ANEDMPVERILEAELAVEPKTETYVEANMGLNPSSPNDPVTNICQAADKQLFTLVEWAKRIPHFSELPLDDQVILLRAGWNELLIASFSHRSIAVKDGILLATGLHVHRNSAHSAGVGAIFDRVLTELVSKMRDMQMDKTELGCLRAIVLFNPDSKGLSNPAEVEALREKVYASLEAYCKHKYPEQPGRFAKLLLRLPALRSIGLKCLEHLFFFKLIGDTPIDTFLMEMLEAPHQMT
# T1 sequence (P19793 226-462) 2: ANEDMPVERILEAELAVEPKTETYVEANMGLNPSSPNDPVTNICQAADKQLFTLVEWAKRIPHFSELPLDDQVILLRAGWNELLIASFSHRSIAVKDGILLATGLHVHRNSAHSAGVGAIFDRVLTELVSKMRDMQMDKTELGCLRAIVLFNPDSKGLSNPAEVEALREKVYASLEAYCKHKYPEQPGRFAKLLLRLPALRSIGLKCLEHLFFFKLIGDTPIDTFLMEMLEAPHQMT
# PPARγ:RXRα heterodimer = molecular target: T2, PPARγ:RXRα heterodimer (Homo sapiens, UniProt P19793+P37231); assay: PPARγ:RXRα heterodimer formation HTRF assay, sGFP-RXRα LBD titrated against biotinylated PPARγ LBD coupled to Tb-SA; format: binding
# T2 construct: His10-tag with TEV site (N, cleaved yes); made in house; host or cells: E. coli T7 express (co-expressed with GroEL/ES)
# T2 sequence (P37231 234-505): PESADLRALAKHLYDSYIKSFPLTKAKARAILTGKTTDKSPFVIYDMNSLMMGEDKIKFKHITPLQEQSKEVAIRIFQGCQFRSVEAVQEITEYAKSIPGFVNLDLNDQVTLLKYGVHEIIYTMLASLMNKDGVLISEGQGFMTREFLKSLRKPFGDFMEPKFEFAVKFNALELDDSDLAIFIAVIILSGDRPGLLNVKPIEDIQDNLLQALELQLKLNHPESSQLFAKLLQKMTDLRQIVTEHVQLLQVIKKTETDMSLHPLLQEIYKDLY
# T2 sequence (P19793 226-462): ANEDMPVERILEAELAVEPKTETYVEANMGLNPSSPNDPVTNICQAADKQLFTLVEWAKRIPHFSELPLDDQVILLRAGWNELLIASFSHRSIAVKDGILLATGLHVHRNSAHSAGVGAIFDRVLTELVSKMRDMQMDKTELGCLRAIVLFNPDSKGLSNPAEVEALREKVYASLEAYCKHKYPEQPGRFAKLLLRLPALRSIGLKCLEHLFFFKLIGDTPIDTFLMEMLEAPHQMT
# RXRα LBD wildtype = conditions: cited from earlier work
# [1] = molecular target: T3, PPARγ LBD in complex with RXRα LBD (Homo sapiens, UniProt P37231); conditions: cited from earlier work
# T3 construct: His10-tag with TEV site (N, cleaved yes); made in house; host or cells: E. coli T7 express (co-expressed with GroEL/ES)
# T3 sequence (P37231 234-505): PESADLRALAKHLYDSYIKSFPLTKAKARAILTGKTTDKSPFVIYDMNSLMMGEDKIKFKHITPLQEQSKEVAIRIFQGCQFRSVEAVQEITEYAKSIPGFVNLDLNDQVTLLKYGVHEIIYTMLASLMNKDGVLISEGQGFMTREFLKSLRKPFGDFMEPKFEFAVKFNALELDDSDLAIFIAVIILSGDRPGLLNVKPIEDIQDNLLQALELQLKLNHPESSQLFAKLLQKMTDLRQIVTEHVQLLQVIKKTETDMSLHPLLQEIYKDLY
# T3 sequence (P19793 226-462 V280T/K284E/V298T/F450Y/E453R partner limits assumed): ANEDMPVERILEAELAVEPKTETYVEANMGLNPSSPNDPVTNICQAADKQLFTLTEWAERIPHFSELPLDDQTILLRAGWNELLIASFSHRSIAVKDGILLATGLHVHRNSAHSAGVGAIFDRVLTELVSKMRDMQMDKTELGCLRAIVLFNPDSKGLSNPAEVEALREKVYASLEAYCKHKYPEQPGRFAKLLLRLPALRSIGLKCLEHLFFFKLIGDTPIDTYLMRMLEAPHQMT
# PPARγ = conditions: cited from earlier work
# [2] = molecular target: T3, PPARγ LBD in complex with RXRα LBD; assay: Heterodimer coactivator recruitment HTRF assay: CBP-1 recruitment by PPARγ LBD in complex with sGFP-RXRα LBD total mutant; format: biochemical
# PPARγ LBD = molecular target: T4, PPARγ LBD (Homo sapiens, UniProt P37231); assay: Monomer cofactor recruitment HTRF assay: CBP-1 recruitment by isolated sGFP-PPARγ LBD; format: biochemical; conditions: versus 1 μM Rosi
# T4 construct: His10-tag with TEV site (N, cleaved yes); made in house; host or cells: E. coli T7 express (co-expressed with GroEL/ES)
# T4 sequence (P37231 234-505): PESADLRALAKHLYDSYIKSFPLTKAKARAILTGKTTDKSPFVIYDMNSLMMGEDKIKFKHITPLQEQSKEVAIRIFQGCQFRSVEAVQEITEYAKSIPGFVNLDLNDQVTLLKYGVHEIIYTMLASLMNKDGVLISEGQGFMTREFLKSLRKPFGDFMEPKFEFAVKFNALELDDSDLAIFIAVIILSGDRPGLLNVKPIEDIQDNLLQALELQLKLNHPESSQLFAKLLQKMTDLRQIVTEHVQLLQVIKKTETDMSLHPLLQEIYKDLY
compound,measurement,setting,value
"O=C(O)Cc1cc(I)c(Oc2cc(I)c(O)c(I)c2)c(I)c1 [TETRAC, 3,3',5,5'-tetraiodothyroacetic acid]",effect on RXRα homodimer formation,RXRα homodimer,slightly but significantly weakened
same,effect on PPARγ:RXRα heterodimer formation,PPARγ:RXRα heterodimer; 10 μM ligand compared with no ligand,strongly reduced the apparent Kd
same,reduction in the apparent Kd of dimer formation,PPARγ:RXRα heterodimer; 10 μM ligand in comparison with dimethyl sulfoxide control,4 fold
same,activation of RXRα in comparison with 1 μM SR11237,RXRα LBD wildtype,below 10%
same,EC50,RXRα LBD wildtype; read-out: EC50 of activation of RXRα,~10 µM
same,enhancement of CBP-1 recruitment in comparison with 1 μM rosiglitazone,[1],approximately 50%
O=S(=O)(Nc1cc(Cl)c(Oc2cnc3ccccc3c2)c(Cl)c1)c1ccc(Cl)cc1Cl [INT131],degree of activation of PPARγ compared with rosiglitazone,PPARγ,30%
GW1929,change of EC50 in the heterodimer setting in comparison with monomeric PPARγ LBD,[2],about 2 fold
same,"Dimer recruitment, agonist mode, Efficacy (%)",[2]; normalized to rosiglitazone in the heterodimer,118%
same,reduction of the apparent Kd of heterodimer formation,PPARγ:RXRα heterodimer; 1 μM ligand compared with apo,3 fold
O=C(O)c1c(Sc2ccccc2)c2cc(Cl)ccc2n1Cc1ccccc1 [SR145],degree of activation of PPARγ compared with rosiglitazone,PPARγ,~ 35%
O=C(Nc1ccccc1)c1cc([N+](=O)[O-])ccc1Cl [GW9662],"Dimer recruitment, antagonist mode, Max inhibition (%)",[2]; versus 1 μM Rosi,52%
same,effect on PPARγ:RXRα heterodimer formation,PPARγ:RXRα heterodimer; 1 μM ligand compared with apo,did not affect heterodimer formation
same,"Monomer recruitment, antagonist mode, Max inhibition (%)",PPARγ LBD,62%
same,IC50,"PPARγ LBD; read-out: Monomer recruitment, antagonist mode, Potency (IC50)",1.2 ± 0.07 µM

# — PMC8258697 (The Journal of Biological Chemistry, 2021)
